Data as given in patent publication US5756491A, “Antiviral cobalt-organic compounds” (priority 1991, dated 1998).

Key:
[1] = system: HSV-1 McKrae Strain; experiment: Direct virucidal efficacy against HSV-1 on HFF monolayers; format: cell-based; conditions: for virucidal efficacy (HSV-1 titer): Experiment 5 (Table 12), 24 h PI
Protocol: HSV-1 McKrae Strain was diluted to a final concentration of 10^5 PFU/ml in minimal essential medium (MEM). Hereinafter, this dilution is referred to as the HSV-1 Suspension for convenience.
(§1) With sufficient stirring, all the compounds completely dissolved.
Each of the drug solutions were mixed with the HSV-1 Suspension in a 1:1 ratio. The drug and HSV-1 Suspension mixture was incubated at 37° C. for thirty minutes with agitation every ten minutes. After the incubation, fifty microliter aliquots were overlaid onto triplicate confluent human foreskin fibroblast (HFF) cell monolayers. The inoculum was absorbed for thirty minutes and then a medium containing the appropriate drug concentration in MEM was added to the monolayers to a final volume of 0.5 milliliters per culture-well. The monolayers were incubated at 37° C. The developing HSV-1 Cytopathology was monitored daily for two days by inverted light microscopy. Titers were calculated by multiple regression analysis. All data is presented as the average PFU/ml reduction at 24 and/or 48 hours after inoculation (PI).
1. HSV-1 inoculated, non-compound treated HFF monolayers were included as "positive controls"; and […]

[2] = system: human foreskin fibroblast (HFF) cell monolayers; experiment: Toxicity effects controls: sham-inoculated compound-treated HFF monolayers; format: cell-based; conditions: Experiment 5 (Table 13); note: key: +: toxic; -: no toxicity; ±: mild toxicity; T: toxicity effects interfered with CPE rating
Excerpt: as §1
In the tables, the symbols have the meaning indicated: […]

[3] = system: RE strain HSV-1; experiment: Topical efficacy in RE strain HSV-1-induced stromal keratitis in the rabbit; format: in vivo, NZW rabbit
Protocol: The following examples describe topical ocular evaluation of the inventive compounds during RE strain HSV-1-induced stromal keratitis in the rabbit. These evaluations included analysis of the topical efficacy of both the inventive compounds alone, or, in certain instances, in combination with trifluorothymidine (TFT). The evaluation was carried out by the combined analysis of both clinical and virological (HSV-1 recovery) parameters. The specified number of NZW rabbits (1.5-2.0 kg) were used. Animals were received at least two days prior to inoculation to allow them to accommodate to the conditions in the vivarium facility. This conditioning of the animals prior to inoculation minimizes animal variability. After the accommodation, the animals received a slit-lamp examination to exclude any animals with pre-existing anterior segment ocular defects. Animals were bi-laterally inoculated by intrastromal injection of 10^5 PFU RE strain HSV-1. The animals were then replaced individually into cages. On day number three post-inoculation (PI), the animals were evaluated by slit-lamp microscopy. Corneal stromal, iris and conjunctival disease were graded on an increasing scale of severity from 0+ to 4+. After evaluation, the animals were divided into a specified number of groups each containing an equal number of animals based on a matched corneal stromal involvement. Topical therapy was initiated immediately after animal groupings. All animals received daily slit-lamp evaluations from day 3 through 7 PI. The ocular HSV-1 induced disease severity was recorded daily. […] Differences in disease resolution and development of stromal alterations are statistically analyzed. Virus recovery during and after topical therapy was compared. The topical efficacy of Compounds 23 and 96 on stromal HSV-1 infection in the rabbit model of stromal keratitis was evaluated. All animals received daily slit lamp evaluations from day 3 through day 7 and on days 9 and 10 PI. The ocular HSV-1-induced disease severity was recorded daily. The topical efficacy of Compounds 23, 96 and 82 on stromal HSV-1 infection in the rabbit model of stromal keratitis was evaluated. All animals received daily slit lamp evaluations for day 3 through day 7 PI. The ocular HSV-1-induced disease severity was recorded daily. The topical efficacy of Compounds 23 and 96 in combination with TFT on stromal HSV-1 infection in the rabbit model of stromal keratitis was evaluated. Groups 1, 2 and 3 each have 5 animals for a total of 10 eyes per combination therapy. This allowed minimization of individual animal variability and performance of a statistical analysis on the results of the combination therapies. Groups 3, 4 and 5 have 2 animals each. These single-agent therapies were used to verify previously reported data on the efficacy of these compounds. The compounds are used at a lower frequency of delivery to match the dosing regimen of the combination-agent group. Consequently, the study also provides comparative information on Compounds 23 and 96 as a lower frequency of topical administration (4 times per day vs. 9 times per day in previous studies).

[4] = system: RE strain HSV-1; experiment: HSV-1 recovery from tear film, cornea and trigeminal ganglia of treated rabbits; format: in vivo, NZW rabbit
Excerpt: The specified number of NZW rabbits (1.5-2.0 kg) were used. Animals were received at least two days prior to inoculation to allow them to accommodate to the conditions in the vivarium facility. This conditioning of the animals prior to inoculation minimizes animal variability. After the accommodation, the animals received a slit-lamp examination to exclude any animals with pre-existing anterior segment ocular defects. Animals were bi-laterally inoculated by intrastromal injection of 10^5 PFU RE strain HSV-1. The animals were then replaced individually into cages.
[…] This was carried out by obtaining tear film by swabbing the lower and upper conjunctival sacs and retaining the swab in the nasal fornix for 10 seconds. The swabs were eluted individually in HBSS. 50 μl aliquots of the virus-HBSS eluate were absorbed under confluent HFF cell monolayers for 5 minutes. The monolayers were hydrated with MEM, incubated at 37° C. and observed daily for 1 to 2 weeks to detect developing cytopathology consistent with HSV infection (HSV CPE).
On day 10 PI, the animals were sacrificed, the corneal epithelium was scraped from the eyes and epithelial and corneal stromal cultures were preformed on HFF cell monolayers. The separation of epithelial virus from deeper stromal virus infection allows for analysis of HSV in these distinct corneal layers. Corneal epithelial and stromal co-cultures were evaluated daily by inverted light microscopy.
At sacrifice, trigeminal ganglia were removed, washed in HBSS, minced and floated over duplicate HFF cell monolayers. The cell co-cultures were monitored by inverted light microscopy for 2 weeks. Negative cultures were blind passaged twice at 7 day intervals. Detection of HSV CPE in the whole-cell co-cultures was scored either positive or negative. HSV recovery from inventive compound-treated, TFT-treated and placebo-treated trigeminal ganglia was compared and differences in recovery rates analyzed.
On day 7 PI, the animals were sacrificed, the corneal epithelium was scraped from the eyes and epithelial and corneal stromal cultures were performed on HFF cell monolayers. The separation of epithelial virus from deeper stromal virus infection allows for analysis of HSV in these distinct corneal layers. Corneal epithelial and stromal co-cultures were evaluated daily by inverted light microscopy.

Compound: CC([O-])=CC(C)=NCCN=C(C)C=C(C)[O-].Cc1cnc[nH]1.Cc1cnc[nH]1.[Br-].[Co+3] [Compound 97]
- virucidal efficacy (HSV-1 titer) ([1]; Run 1, 0.0001 mg/ml): 10^5 PFU/ml
- virucidal efficacy (HSV-1 titer) ([1]; Run 1, 0.001 mg/ml): 10^5 PFU/ml
- virucidal efficacy (HSV-1 titer) ([1]; Run 1, 0.01 mg/ml): 10^4 PFU/ml
- virucidal efficacy (HSV-1 titer) ([1]; Run 1, 0.1 mg/ml): 10^1 PFU/ml
- virucidal efficacy (HSV-1 titer) ([1]; Run 1, 1 mg/ml): 0 PFU/ml
- virucidal efficacy (HSV-1 titer) ([1]; Run 1, 5 mg/ml): 0 PFU/ml
- virucidal efficacy (HSV-1 titer) ([1]; Run 2, 0.001 mg/ml): 10^4 PFU/ml
- virucidal efficacy (HSV-1 titer) ([1]; Run 2, 0.01 mg/ml): 10^1 PFU/ml
- virucidal efficacy (HSV-1 titer) ([1]; Run 2, 0.1 mg/ml): 0 PFU/ml
- virucidal efficacy (HSV-1 titer) ([1]; Run 2, 1 mg/ml): 0 PFU/ml
- virucidal efficacy (HSV-1 titer) ([1]; Run 2, 5 mg/ml): 0 PFU/ml
- effective virucidal concentration IC50 ([1]; Experiment 5 (Table 14), HSV-1): 0.1-.1 mg/ml
- effective virucidal concentration IC90 ([1]; Experiment 5 (Table 14), HSV-1): 100 to 1000 µg/mL
- toxicity effects ([2]; 24 h, 0.00 mg/ml (so in the source)): -
- toxicity effects ([2]; 24 h, 0.01 mg/ml): -
- toxicity effects ([2]; 24 h, 0.5 mg/ml): -
- toxicity effects ([2]; 48 h, 0.00 mg/ml (so in the source)): -
- toxicity effects ([2]; 48 h, 0.01 mg/ml): -
- toxicity effects ([2]; 48 h, 0.5 mg/ml): -
- toxicity effects ([2]; 48 h, 5 mg/ml): +

Compound: O=c1[nH]c(=O)n([C@H]2C[C@H](O)[C@@H](CO)O2)cc1C(F)(F)F [TFT, trifluorothymidine]
- efficacy ranking during stromal HSV-1 infection ([3]; Example 3, all eyes, FIG. 1, 1 mg/ml (TFT 0.1%), 9x/day, 5 days): Compound 96>>Compound 23>TFT>Placebo
- efficacy ranking, average stromal disease scores ([3]; Example 4, FIG. 2): Compound 96>Compound 82>Compound 23>TFT=Placebo
- effect on stromal disease severity/progression ([3]; Example 5, FIG. 5, initial stromal disease <0.5 on day 3 PI): ineffective in reducing the stromal disease severity
- effect on development and progression of stromal disease ([3]; Example 5, FIG. 7, score <0.5 on day 3 PI, 4 times per day): ineffective in reducing the development and progression of stromal disease
- HSV-1 recovery, corneal epithelium (C.E.) ([4]; Example 3 (Table 22)): 60%
- HSV-1 recovery, corneal stroma (C.S.) ([4]; Example 3 (Table 22)): 60%
- HSV-1 recovery, trigeminal ganglia (T.G.) ([4]; Example 3 (Table 22)): 60%
- HSV-1 recovery, tear film (positive samples of total) ([4]; Example 3 (Table 22), day 3 PI): 100%
- HSV-1 recovery, tear film (positive samples of total) ([4]; Example 3 (Table 22), day 5 PI): 80%
- HSV-1 recovery, tear film (positive samples of total) ([4]; Example 3 (Table 22), day 7 PI): 30%
- HSV-1 recovery, tear film (positive samples of total) ([4]; Example 3 (Table 22), day 9 PI): 0%
- HSV-1 recovery, corneal stroma ([4]; Example 5 (Table 23)): 70%
- HSV-1 recovery (positive cultures per total) ([4]; Example 5 (Table 23), column 1): 0%
- HSV-1 recovery (positive cultures per total) ([4]; Example 5 (Table 23), column 3): 100%
- HSV-1 recovery (positive cultures per total) ([4]; Example 5 (Table 23), column 5): 90%
- HSV-1 recovery (positive cultures per total) ([4]; Example 5 (Table 23), column 7): 70%
